Data as given in patent US10190093B2, “Artificial oocyte activation” (The Curators of the University of Missouri, priority 2013, dated 2019).
Marks after values point to notes of the source that are not given here.

Legend:
MII oocytes = assay: Intracellular calcium measurement (fura-2); type: cell-based, pig; details: oocytes incubated with thimerosal, positive control
Description: The zonae pellucidae were removed after maturation and zona-free oocytes were loaded with the Ca^2+ indicator dye, fura-2. For this purpose, they were incubated in the presence of […] of the acetoxymethyl ester form of the dye and 0.02% pluronic F-127 for 40-50 min (both from Invitrogen). The dye loaded oocytes were transferred into a chamber with a cover-glass bottom and the chamber was then placed on the heated stage of an inverted microscope. Changes in the intracellular free Ca^2+ concentration were recorded using InCytIm2, a dual-wavelength fluorescence imaging system (Intracellular Imaging, Inc.; Cincinnati, Ohio). During measurements the emitted fluorescence was detected at 510 nm after exciting the dye alternately at 340 and 380 nm. The ratio of the two emitted fluorescence intensities was calculated and the data are presented as fluorescence ratio values. Ratios of 1.0 and 5.0 correspond to about 100 and 1,200 nM Ca^2+, respectively. In each treatment group the measurements were repeated at least 5 times using different oocytes.

SCNT embryos = assay: In vitro development of SCNT embryos treated with Scriptaid or TPEN; type: cell-based, pig; details: SCNT + Scriptaid
Description: Activated oocytes were washed three times in PZM3 then incubated at 38.5° C., 5% CO2 until the embryos were examined on either day 2, 6 or 7. At the end of the culture, where applicable, the frequency of cleaved embryos and blastocysts, and total cell number in the blastocysts were recorded. Hoechst 33342 (1.2 mg/mL) was used to stain nuclei and the embryos were then evaluated by epi-fluorescence microscopy.
Next, the optimal concentration and duration of TPEN ([…], 30 min) was used to artificially activate reconstructed SCNT embryos. […] Thus lower concentrations of TPEN (5-10 μM) can enhance embryo development when introduced after conventional oocyte activation.

## C[CH2][Hg][S]c1ccccc1C(=O)[O-].[Na+] [thimerosal]
MII oocytes
  intracellular Ca2+ increase: could induce Ca^2+ increase

## O=C(CCCCCN1C(=O)c2cccc3cccc(c23)C1=O)NO [Scriptaid]
SCNT embryos
  % blastocysts: 22.7%^b
